Each block holds one molecule with its values, some of them ahead of it.
Experiments:
[1] = molecular target: T1, M-phase inducer phosphatase 2 (Homo sapiens, UniProt P30305); assay: Inhibition of human CDC25B
T1 sequence (P30305 whole entry): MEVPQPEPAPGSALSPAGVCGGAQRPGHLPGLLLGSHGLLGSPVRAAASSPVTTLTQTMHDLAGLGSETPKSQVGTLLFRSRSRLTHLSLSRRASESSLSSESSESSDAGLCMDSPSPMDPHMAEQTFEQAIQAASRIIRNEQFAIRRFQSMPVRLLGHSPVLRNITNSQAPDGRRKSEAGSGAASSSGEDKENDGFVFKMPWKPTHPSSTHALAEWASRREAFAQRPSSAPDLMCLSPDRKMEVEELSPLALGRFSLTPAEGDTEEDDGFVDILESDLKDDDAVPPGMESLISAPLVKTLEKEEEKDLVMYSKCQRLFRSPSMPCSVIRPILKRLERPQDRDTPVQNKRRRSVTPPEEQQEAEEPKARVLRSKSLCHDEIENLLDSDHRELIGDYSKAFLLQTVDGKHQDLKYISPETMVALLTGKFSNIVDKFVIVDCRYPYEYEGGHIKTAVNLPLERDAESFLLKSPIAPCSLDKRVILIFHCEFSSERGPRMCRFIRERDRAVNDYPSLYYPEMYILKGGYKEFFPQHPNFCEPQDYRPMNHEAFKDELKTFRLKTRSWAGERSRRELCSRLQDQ

[2] = molecular target: T2, M-phase inducer phosphatase 1 (Homo sapiens, UniProt P30304); assay: Inhibition of human CDC25A
T2 sequence (P30304 whole entry): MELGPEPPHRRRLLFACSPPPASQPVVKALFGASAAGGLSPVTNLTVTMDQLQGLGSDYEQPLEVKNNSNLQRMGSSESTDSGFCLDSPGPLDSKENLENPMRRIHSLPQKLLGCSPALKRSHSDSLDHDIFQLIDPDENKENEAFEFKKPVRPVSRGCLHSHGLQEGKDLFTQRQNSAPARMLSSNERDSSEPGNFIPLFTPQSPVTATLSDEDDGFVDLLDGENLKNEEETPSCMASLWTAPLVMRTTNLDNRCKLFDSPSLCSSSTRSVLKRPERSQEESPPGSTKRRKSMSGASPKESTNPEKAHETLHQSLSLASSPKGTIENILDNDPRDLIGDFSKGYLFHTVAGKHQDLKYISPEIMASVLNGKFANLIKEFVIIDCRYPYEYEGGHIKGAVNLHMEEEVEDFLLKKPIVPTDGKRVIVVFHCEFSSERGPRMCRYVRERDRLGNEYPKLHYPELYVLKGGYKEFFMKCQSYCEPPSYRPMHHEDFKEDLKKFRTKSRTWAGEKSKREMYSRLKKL

[3] = molecular target: T3, M-phase inducer phosphatase 3 (Homo sapiens, UniProt P30307); assay: Inhibition of human CDC25C
T3 sequence (P30307 whole entry): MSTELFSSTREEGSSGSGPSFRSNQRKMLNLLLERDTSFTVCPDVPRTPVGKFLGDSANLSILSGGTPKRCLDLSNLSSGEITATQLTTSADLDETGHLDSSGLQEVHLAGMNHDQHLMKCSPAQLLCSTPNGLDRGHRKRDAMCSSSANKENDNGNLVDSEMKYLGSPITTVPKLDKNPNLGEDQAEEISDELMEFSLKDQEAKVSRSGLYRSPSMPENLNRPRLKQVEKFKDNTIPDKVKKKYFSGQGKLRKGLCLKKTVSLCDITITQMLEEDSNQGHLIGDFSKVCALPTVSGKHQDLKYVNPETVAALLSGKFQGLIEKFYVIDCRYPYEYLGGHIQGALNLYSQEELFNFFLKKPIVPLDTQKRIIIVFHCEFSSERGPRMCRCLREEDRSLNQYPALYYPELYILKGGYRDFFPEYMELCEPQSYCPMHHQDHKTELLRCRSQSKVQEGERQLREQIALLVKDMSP

[4] = molecular target: T1, M-phase inducer phosphatase 2; assay: Inhibition of CDC25B (unknown origin)
[5] = Antitumor activity against human RPMI cells; type: functional, cell-based
[6] = molecular target: T3, M-phase inducer phosphatase 3; assay: Inhibition of CDC25C (unknown origin)
[7] = molecular target: T2, M-phase inducer phosphatase 1; assay: Inhibition of CDC25A (unknown origin)
[8] = molecular target: T1, M-phase inducer phosphatase 2; assay: Inhibition of recombinant N-terminal GST-tagged CDC25B (unknown origin) expressed in Escherichia coli BL21 (DE3) cells incubated for 2 hrs
[9] = molecular target: T2, M-phase inducer phosphatase 1; assay: Inhibition of recombinant N-terminal GST-tagged CDC25A (unknown origin) expressed in Escherichia coli BL21 (DE3) cells incubated for 2 hrs
[10] = molecular target: T3, M-phase inducer phosphatase 3; assay: Inhibition of recombinant N-terminal GST-tagged CDC25C (unknown origin) expressed in Escherichia coli BL21 (DE3) cells incubated for 2 hrs
[11] = molecular target: T3, M-phase inducer phosphatase 3; assay: Inhibition of recombinant CDC25C (unknown origin)
[12] = molecular target: T2, M-phase inducer phosphatase 1; assay: Inhibition of recombinant CDC25A (unknown origin)
[13] = molecular target: T1, M-phase inducer phosphatase 2; assay: Inhibition of recombinant CDC25B (unknown origin)
[14] = molecular target: T1, M-phase inducer phosphatase 2; assay: Inhibition of human recombinant CDC25B
[15] = molecular target: T2, M-phase inducer phosphatase 1; assay: Inhibition of CDC25A (unknown origin) using fluorescein diphosphate as substrate
[16] = tested on: HeLa; assay: Cytotoxicity against human HeLa cells assessed as inhibition of cell growth incubated for 48 hrs by MTT assay; type: functional, cell-based
[17] = tested on: HCT-116; assay: Antitumor activity against human HCT-116 cells; type: functional, cell-based
[18] = molecular target: T1, M-phase inducer phosphatase 2; assay: Inhibition of recombinant N-terminal GST-tagged CDC25B (372 to 551 residues) (unknown origin) expressed in Escherichia coli BL21 (DE3) cells incubated for 45 mins
[19] = molecular target: T2, M-phase inducer phosphatase 1; assay: Inhibition of N-terminal FLAG-tagged wild type CDC25A (331 to 524 residues) (unknown origin) expressed in Escherichia coli BL21 (DE3) cells incubated for 45 mins

SMILES: CCOC(=O)c1ccc(N2C(=O)/C(=C\c3cccc(C)c3)SC2c2ccccc2)cc1 (stereo not drawn)
IC50 [1]: 39 µM

SMILES: O=C(O)c1ccc(NC2=C(Cl)C(=O)c3ccccc3C2=O)cc1
IC50 [2]: 3.19 µM
IC50 [3]: 5.41 µM
IC50 [1]: 11.1 µM

SMILES: CCOC(=O)C1=C(C)N=c2s/c(=C\c3ccc(-n4cc(CNC(=O)Nc5sccc5C(=O)O)nn4)cc3)c(=O)n2C1c1ccccc1 (stereo not drawn)
IC50 [4]: 3 µM

SMILES: CC(C)n1c2c(=O)c(-c3ccc(F)cc3)cc(=O)c2c2c(=O)c3ccccc3c21
IC50 [6]: 2.55 µM
IC50 [7]: 2.73 µM

SMILES: CCCCCCCCCCCC/C=C/[C@]12C(=O)O[C@]3(C)O[C@]4(C)OC(=O)C(=C[C@H]1CCCCCCCCCCCC)C4C32 (single isomer, unassigned)
IC50 [4]: 6.44 µM

SMILES: COc1ccc2c(CSC3=CC(=O)c4ccccc4C3=O)cc(=O)oc2c1
IC50 [8]: 9.1 µM
IC50 [9]: 4.3 µM
IC50 [10]: 0.9 µM

SMILES: Cc1nc2c(s1)C(=O)C=C(NCCN(C)C)C2=O
IC50 [11]: 0.023 µM
IC50 [12]: 0.023 µM
IC50 [13]: 0.053 µM

SMILES: C[C@@H](C[C@@H](O)C(C)(C)C=O)[C@@H]1CC[C@]2(C)C3=CC[C@H]4C(C)(C)C(=O)CC[C@]4(C)[C@H]3CC[C@@]12C
IC50 [4]: 2.1 µM

SMILES: CCOC(=O)C1=C(C)N=c2s/c(=C\c3cc(Br)c(O)c(Br)c3)c(=O)n2C1c1ccc2c(c1)OCO2 (stereo not drawn)
IC50 [14]: 4.5 µM

SMILES: COC1=CC(=O)C=C([S@@+]([O-])c2ccc(C)cc2)C1=O
IC50 [2]: 2.6 µM
IC50 [3]: 5.72 µM
IC50 [1]: 6.99 µM

SMILES: CCSC1=C(C)C(=O)c2ccccc2C1=O
IC50 [4]: 4.7 µM
IC50 [7]: 5.5 µM

SMILES: CC(C)n1c2c(=O)c(-c3ccccc3)cc(=O)c2c2c(=O)c3ccccc3c21
IC50 [6]: 2 µM
IC50 [7]: 2.01 µM

SMILES: N#Cc1c(F)cc(O)cc1SCCS(=O)(=O)O
IC50 [18]: 1000 µM
IC50 [19]: 2200 µM

SMILES: CCCCOc1cc2c(c3c(=O)oc4ccccc4c13)C(=O)C=CC2=O
IC50 [6]: 9 µM
IC50 [4]: 46.1 µM
IC50 [7]: 13.2 µM

Now from value to molecule, other results behind:

IC50 [5]: 0.7 µM
SMILES: CCNC1=C(F)C(=O)c2c(F)c(F)c(F)c(F)c2C1=O

IC50 [15]: 7.9 µM
SMILES: CCCc1cc(O)nc(SCC(=O)NCCSCc2ccco2)n1
IC50 [16]: 66.3 µM

IC50 [6]: 2.51 µM
IC50 [7]: 2 µM
SMILES: Cc1cc(=O)c2c(c1=O)c1c(=O)c3ccccc3c1n2C(C)C

IC50 [17]: 0.89 µM
SMILES: CC(C)=CCOc1ccc(C(=O)/C=C/c2ccc(Cl)cc2)c(O)c1

IC50 [11]: 0.023 µM
IC50 [12]: 0.023 µM
IC50 [13]: 0.053 µM
SMILES: CN(C)CCNC1=CC(=O)c2nc(-c3cc(F)ccc3F)oc2C1=O

IC50 [5]: 0.8 µM
SMILES: O=C1C(F)=C(Nc2ccccc2)C(=O)c2c(F)c(F)c(F)c(F)c21

IC50 [6]: 3.5 µM
IC50 [4]: 0.78 µM
IC50 [7]: 0.65 µM
SMILES: O=C(O)C1CCCCC1c1c2ccc(=O)cc-2oc2cc(O)ccc12 (stereo not drawn)

IC50 [6]: 1.72 µM
IC50 [7]: 1.68 µM
SMILES: CC(C)n1c2c(=O)c(-c3ccco3)cc(=O)c2c2c(=O)c3ccccc3c21
